Values of other authors in patent US9981895B1 (Parnative, Inc., priority 2015, dated 2018).

What was measured:
RAW 264.7 cell line = details: MTT assay, Abbott et al. 2010
HeLa cell line = details: MTT assay, Abbott et al. 2010
[1] = TBARS assay; CPC-purified compounds; Abbott et al. 2010

| Molecule | concentration at which cytotoxicity was demonstrated (RAW 264.7 cell line) | concentration at which cytotoxicity was demonstrated (HeLa cell line) | dose at which oxidation was inhibited [1] |
| --- | --- | --- | --- |
| 5-RE)-2-(4-hydroxyphenyl) ethenyl]-2-[(1E)-2-phenylprop-1-en-1-yl]benzene-1,3-diol [arachidin-3] | 55 µM | 55 µM | 14 µM |
| CC(C)/C=C/c1c(O)cc(/C=C/c2ccc(O)c(O)c2)cc1O [arachidin-1] | 27 µM | 27 µM | 7 µM |
